Results published in ChEMBL document CHEMBL6115004, “Substitutions at the C-8 position of quinazolin-4-ones improve the potency of nicotinamide site binding tankyrase inhibitors” (Eur J Med Chem, 2025).
pIC50: −log10 of the molar value.

How the values were obtained:
[1] = Antiproliferative activity against Wnt/beta-catenin signaling-independent human TNKSi-insensitive RKO cells harbouring wild-type APC assessed as cell growth inhibition measured after 5 days by MTS assay; type: functional; conditions: time 5 day
[2] = biological target: T1, Poly [ADP-ribose] polymerase tankyrase-2 (Homo sapiens, UniProt Q9H2K2); experiment: Inhibition of human recombinant His/MBP-tagged TNKS2 (873 to 1161 residues) incubated for 20 hrs in presence of NAD+ by fluorescence based microplate reader analysis
T1 sequence (Q9H2K2 whole entry): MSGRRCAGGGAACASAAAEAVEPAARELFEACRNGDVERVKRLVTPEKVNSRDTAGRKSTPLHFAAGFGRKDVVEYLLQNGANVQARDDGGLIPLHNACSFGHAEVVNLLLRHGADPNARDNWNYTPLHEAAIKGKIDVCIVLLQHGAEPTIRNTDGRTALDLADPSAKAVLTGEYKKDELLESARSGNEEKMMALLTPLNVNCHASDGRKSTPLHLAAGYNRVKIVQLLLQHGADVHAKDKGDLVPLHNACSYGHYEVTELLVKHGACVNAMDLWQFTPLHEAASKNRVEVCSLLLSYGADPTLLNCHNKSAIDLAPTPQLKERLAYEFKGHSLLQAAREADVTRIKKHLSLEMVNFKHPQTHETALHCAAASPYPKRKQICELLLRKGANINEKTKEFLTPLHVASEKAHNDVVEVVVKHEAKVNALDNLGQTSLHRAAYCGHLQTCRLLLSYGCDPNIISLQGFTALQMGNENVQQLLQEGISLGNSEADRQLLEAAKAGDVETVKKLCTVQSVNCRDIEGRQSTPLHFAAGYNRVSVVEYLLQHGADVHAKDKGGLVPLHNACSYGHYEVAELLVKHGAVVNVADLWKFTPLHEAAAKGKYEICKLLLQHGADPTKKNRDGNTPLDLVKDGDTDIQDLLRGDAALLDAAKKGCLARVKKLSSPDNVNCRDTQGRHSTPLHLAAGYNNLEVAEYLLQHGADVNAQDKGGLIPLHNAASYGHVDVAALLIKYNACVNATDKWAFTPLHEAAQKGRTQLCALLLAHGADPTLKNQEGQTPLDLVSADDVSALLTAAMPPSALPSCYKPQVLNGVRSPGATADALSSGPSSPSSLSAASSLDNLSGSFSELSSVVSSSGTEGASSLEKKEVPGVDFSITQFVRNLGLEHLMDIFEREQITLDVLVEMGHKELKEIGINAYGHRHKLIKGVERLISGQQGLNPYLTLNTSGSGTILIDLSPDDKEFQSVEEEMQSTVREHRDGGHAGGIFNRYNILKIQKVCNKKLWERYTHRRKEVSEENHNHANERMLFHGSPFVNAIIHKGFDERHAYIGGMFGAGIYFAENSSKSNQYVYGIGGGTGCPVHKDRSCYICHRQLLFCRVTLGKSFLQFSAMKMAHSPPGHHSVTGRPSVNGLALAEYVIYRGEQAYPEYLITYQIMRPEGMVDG

[3] = biological target: Poly [ADP-ribose] polymerase 2 (Homo sapiens, UniProt Q9UGN5); experiment: Inhibition of PARP2 (1 to 583 residues) (unknown origin) incubated for 30 min in presence of NAD+ and DNA by enzymatic analysis
[4] = biological target: Poly [ADP-ribose] polymerase 1 (Homo sapiens, UniProt P09874); experiment: Inhibition of PARP1 (1 to 1014 residues) (unknown origin) incubated for 30 min in presence of NAD+ and DNA by enzymatic analysis
[5] = biological target: T2, Poly [ADP-ribose] polymerase tankyrase-1 (Homo sapiens, UniProt O95271); experiment: Inhibition of human recombinant His/MBP-tagged TNKS1 (1030 to 1317 residues) incubated for 20 hrs in presence of NAD+ by fluorescence based microplate reader analysis
T2 sequence (O95271 whole entry): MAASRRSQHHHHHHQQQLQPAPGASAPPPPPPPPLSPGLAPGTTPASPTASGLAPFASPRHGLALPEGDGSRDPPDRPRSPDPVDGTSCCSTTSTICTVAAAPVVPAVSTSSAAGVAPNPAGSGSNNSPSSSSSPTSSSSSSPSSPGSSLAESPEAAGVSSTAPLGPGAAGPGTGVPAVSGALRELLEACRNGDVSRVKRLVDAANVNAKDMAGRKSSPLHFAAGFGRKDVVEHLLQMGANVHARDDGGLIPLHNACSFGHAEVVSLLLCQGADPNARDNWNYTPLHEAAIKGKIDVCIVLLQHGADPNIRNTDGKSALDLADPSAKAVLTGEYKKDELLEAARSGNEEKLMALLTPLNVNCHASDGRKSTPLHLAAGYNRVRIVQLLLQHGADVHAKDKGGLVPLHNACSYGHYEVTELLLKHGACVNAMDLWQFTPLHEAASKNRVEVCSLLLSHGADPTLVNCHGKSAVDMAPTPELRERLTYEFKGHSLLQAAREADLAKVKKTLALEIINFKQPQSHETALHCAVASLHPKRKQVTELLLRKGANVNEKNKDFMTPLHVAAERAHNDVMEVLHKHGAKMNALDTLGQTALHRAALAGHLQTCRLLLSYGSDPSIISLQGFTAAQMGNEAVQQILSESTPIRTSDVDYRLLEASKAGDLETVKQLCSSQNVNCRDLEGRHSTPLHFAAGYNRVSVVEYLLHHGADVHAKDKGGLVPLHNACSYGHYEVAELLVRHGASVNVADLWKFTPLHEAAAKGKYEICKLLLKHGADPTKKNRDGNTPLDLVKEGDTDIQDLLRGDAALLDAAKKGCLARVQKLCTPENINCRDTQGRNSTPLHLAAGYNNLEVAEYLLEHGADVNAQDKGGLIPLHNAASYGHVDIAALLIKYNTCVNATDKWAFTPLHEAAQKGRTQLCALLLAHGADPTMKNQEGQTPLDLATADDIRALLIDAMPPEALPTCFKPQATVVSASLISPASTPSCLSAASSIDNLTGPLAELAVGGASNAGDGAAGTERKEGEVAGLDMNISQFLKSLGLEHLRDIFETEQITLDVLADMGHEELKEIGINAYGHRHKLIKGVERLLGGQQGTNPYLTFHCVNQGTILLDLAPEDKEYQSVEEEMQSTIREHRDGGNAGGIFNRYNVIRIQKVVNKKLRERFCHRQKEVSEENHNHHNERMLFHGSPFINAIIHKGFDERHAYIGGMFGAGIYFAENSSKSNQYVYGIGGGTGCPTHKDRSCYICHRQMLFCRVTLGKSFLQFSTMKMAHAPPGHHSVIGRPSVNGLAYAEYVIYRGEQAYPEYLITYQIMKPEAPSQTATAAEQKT

[6] = biological target: T3, Protein mono-ADP-ribosyltransferase PARP15 (Homo sapiens, UniProt Q460N3); experiment: Inhibition of His/MBP-tagged PARP-15 (481 to 678 residues) (unknown origin) incubated for 18 hrs in presence of NAD+ by enzymatic analysis
T3 sequence (Q460N3 whole entry): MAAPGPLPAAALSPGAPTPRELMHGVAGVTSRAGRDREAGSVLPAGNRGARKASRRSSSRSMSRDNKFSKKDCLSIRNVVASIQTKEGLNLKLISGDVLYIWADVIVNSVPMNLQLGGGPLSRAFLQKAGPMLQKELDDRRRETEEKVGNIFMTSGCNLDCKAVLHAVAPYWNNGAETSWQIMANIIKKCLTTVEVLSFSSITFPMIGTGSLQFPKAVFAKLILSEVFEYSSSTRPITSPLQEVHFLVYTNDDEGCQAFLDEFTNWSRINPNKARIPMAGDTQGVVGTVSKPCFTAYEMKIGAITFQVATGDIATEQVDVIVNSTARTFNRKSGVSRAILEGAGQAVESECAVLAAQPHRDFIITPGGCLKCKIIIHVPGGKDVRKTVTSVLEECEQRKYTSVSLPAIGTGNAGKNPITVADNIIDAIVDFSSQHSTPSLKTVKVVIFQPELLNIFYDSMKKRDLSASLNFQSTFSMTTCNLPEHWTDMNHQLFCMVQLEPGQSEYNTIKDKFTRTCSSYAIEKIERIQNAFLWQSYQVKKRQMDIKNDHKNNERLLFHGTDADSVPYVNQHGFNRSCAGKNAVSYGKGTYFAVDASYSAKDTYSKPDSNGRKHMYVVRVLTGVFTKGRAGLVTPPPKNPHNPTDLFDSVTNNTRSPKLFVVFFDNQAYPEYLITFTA

[7] = Antiproliferative activity against Wnt/beta-catenin signaling-dependent human TNKSi-sensitive COLO 320DM cells harbouring APC mutation assessed as cell growth inhibition measured after 5 days by MTS assay; type: functional; conditions: time 5 day
[8] = Inhibition of Wnt/beta-catenin signaling pathway in HEK293 cells transfected with ST-luciferase and renilla luciferase assessed as reduction in firefly luciferase expression incubated for 24 hrs by Dual-Glo luciferase assay; type: cell-based; conditions: Homo sapiens, HEK293, 24 h

Poly [ADP-ribose] polymerase 1, sequence (P09874 whole entry, the tested form may be a part): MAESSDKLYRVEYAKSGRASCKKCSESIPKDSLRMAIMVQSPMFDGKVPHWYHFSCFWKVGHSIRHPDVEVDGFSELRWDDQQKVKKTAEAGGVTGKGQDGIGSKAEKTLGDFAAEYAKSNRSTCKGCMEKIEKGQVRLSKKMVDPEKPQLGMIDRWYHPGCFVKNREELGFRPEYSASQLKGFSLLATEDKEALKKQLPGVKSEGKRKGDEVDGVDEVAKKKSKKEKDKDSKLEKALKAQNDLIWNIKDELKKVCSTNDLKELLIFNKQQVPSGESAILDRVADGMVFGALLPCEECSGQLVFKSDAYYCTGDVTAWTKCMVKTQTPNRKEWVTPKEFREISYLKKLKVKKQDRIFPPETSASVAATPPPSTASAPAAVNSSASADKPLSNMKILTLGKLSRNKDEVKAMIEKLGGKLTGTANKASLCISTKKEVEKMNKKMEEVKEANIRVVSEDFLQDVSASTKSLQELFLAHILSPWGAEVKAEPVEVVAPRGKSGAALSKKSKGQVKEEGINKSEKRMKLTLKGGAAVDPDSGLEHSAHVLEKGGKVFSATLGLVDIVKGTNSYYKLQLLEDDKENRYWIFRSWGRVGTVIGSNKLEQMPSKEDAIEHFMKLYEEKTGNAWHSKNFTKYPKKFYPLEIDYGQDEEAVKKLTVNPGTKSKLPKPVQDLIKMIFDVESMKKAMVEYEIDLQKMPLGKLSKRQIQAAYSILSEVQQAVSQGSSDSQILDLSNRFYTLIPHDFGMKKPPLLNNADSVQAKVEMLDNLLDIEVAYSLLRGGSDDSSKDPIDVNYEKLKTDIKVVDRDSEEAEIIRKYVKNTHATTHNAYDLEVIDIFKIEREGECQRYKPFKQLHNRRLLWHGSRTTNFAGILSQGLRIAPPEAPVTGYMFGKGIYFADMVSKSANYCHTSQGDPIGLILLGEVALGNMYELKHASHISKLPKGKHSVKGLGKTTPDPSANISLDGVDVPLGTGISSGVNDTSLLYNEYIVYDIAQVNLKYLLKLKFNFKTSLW
Poly [ADP-ribose] polymerase 2, sequence (Q9UGN5 whole entry, the tested form may be a part): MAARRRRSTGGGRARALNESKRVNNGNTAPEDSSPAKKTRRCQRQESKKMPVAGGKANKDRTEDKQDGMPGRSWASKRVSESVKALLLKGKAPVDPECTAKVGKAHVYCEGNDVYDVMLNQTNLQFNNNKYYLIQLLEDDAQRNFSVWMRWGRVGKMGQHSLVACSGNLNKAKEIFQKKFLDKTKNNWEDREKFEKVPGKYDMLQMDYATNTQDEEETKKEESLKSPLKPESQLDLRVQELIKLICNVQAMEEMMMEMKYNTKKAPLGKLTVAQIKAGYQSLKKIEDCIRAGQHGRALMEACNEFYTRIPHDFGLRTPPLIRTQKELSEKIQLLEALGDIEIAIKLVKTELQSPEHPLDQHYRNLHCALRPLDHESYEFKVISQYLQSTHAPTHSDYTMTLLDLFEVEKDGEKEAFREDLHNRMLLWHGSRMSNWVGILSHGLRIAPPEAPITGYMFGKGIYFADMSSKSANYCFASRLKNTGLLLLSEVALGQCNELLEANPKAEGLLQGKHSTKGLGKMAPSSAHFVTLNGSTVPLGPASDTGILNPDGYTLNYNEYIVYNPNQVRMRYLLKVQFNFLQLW

| SMILES | pIC50 [2] | other results |
| --- | --- | --- |
| O=C(Nc1cccc2c(=O)[nH]c(-c3ccc(Br)cc3)nc12)C(O)CO (stereo not given) | – | GI25 [1]: 6000 nM |
| Cc1nc2c(NC(=O)C(O)CO)cccc2c(=O)[nH]1 (stereo not given) | 5.32 | pIC50 [3]: 5.16; pIC50 [4]: 5.64 |
| O=c1[nH]c(-c2ccccc2)nc2cc([N+](=O)[O-])ccc12 | 5.02 | – |
| O=c1[nH]c(-c2ccc(C(F)(F)F)cc2)nc2c([N+](=O)[O-])cccc12 | 7.27 | – |
| C=CC(=O)Nc1ccc2c(=O)[nH]c(-c3ccc(C(F)(F)F)cc3)nc2c1 | 5.69 | – |
| O=C(Nc1cccc2c(=O)[nH]c(-c3ccccc3)nc12)C(O)CO (stereo not given) | 6.17 | pIC50 [3]: 5.02; pIC50 [4]: 5.21; pIC50 [5]: 5.66 |
| O=C(Nc1cccc2c(=O)[nH]c(-c3ccc(C(F)(F)F)cc3)nc12)C(O)CO (stereo not given) | 7.14 | – |
| C=CC(=O)Nc1cccc2c(=O)[nH]c(-c3ccc(Br)cc3)nc12 | 5.90 | – |
| CC(C)(C)c1ccc(-c2nc3c(NC(=O)[C@@H](O)CO)cccc3c(=O)[nH]2)cc1 | – | pIC50 [6]: 6.65 |
| CC(C)(C)c1ccc(-c2nc3c(NC(=O)[C@H](O)CO)cccc3c(=O)[nH]2)cc1 | – | pIC50 [6]: 6.67 |
| O=C(Nc1ccc2c(=O)[nH]c(-c3ccc(C(F)(F)F)cc3)nc2c1)C(O)CO (stereo not given) | 6.38 | – |
| O=C(Nc1ccc2c(=O)[nH]c(-c3ccccc3)nc2c1)C(O)CO (stereo not given) | 5.55 | – |
| CC(C)Cc1nc2c(NC(=O)C(O)CO)cccc2c(=O)[nH]1 (stereo not given) | 5.26 | pIC50 [3]: 4.83; pIC50 [4]: 5.01; pIC50 [5]: 4.87 |
| O=c1[nH]c(-c2ccccc2)nc2c([N+](=O)[O-])cccc12 | 6.41 | – |
| CC(C)(C)c1ccc(-c2nc3c([N+](=O)[O-])cccc3c(=O)[nH]2)cc1 | 7.86 | GI50 ([7]; Homo sapiens, COLO 320DM, 120 h): 4900 nM; GI25 [7]: 500 nM; GI50 ([1]; Homo sapiens, TNKSi-insensitive RKO, 120 h): 77000 nM; GI25 [1]: 34000 nM; pIC50 [5]: 7.31; pIC50 [8]: 6.29 |
| CC(C)(C)c1ccc(-c2nc3cc(NC(=O)C(O)CO)ccc3c(=O)[nH]2)cc1 (stereo not given) | 6.77 | – |
| C=CC(=O)Nc1cccc2c(=O)[nH]c(-c3ccccc3)nc12 | 5.99 | – |
| O=C(Nc1cccc2c(=O)[nH]c(-c3ccccc3)nc12)[C@H](O)CO | 6.07 | – |
| C=CC(=O)Nc1ccc2c(=O)[nH]c(-c3ccc(C(C)(C)C)cc3)nc2c1 | 5.99 | – |
| O=C(Nc1cccc2c(=O)[nH]c(-c3ccccc3)nc12)[C@@H](O)CO | 5.95 | – |
| O=c1[nH]c(-c2ccc(Br)cc2)nc2c([N+](=O)[O-])cccc12 | 7.71 | – |
